Measurements as given in patent publication US9968579B2, “ATRA for modulating Pin1 activity and stability” (Beth Israel Deaconess Medical Center, Inc., priority 2014, dated 2018).
pKd: −log10 of the molar value. One block for each molecule: values may come before it.

Key:
Pin1 PPIase domain = target: T1, Pin1 PPIase domain (Homo sapiens, UniProt Q13526); test: FP-HTS / FP assay, competition with pTide probe for Pin1 binding; conditions: for interaction with Pin1 in FP assay: 0.5 h or 24 h incubation with Pin1; for Pin1 binding among retinoids tested: FIG. 4F
T1 construct: Pin1 PPIase domain was used instead of its full-length protein
Text: A FP-HTS screening for small molecule compounds that may compete with pTide for binding to dephosphorylated and thus activated Pin1 was developed. Pin1 PPIase domain was used instead of its full-length protein to ensure the identification of compounds that selectively target the catalytic site of monomeric Pin1. The HTS probe pTide was conjugated with FITC or TAMRA and assay conditions optimized to ensure that the probe only binds to the catalytic active site with certain essential residues, such as K63 and R69 (PDB: 2Q5A).
(§1) As observed in FIGS. 4B and 4C, 13cRA and its pairing compound ATRA include a carboxylic acid and a hydrophobic six-membered aromatic ring.
To examine whether the carboxylic acid in ATRA serves as an alternative of phosphate group that binds to Pin1, several structurally similar retinoids with substituted carboxylic or aromatic groups, as well as the new generation of retinoid drugs including Fenretinide and Bexarotene were tested for Pin1 binding.

cyclin D1 promoter = test: Cyclin D1 promoter activation by Pin1; type: cell-based; conditions: dose-dependent
Text: FIG. 6 illustrates study results 600 in which ATRA may have anticancer activity in other cancer types. Breast cancer was used as model due to the substantial oncogenic role of Pin1 in vitro and in vivo. The first step was to test whether ATRA may reverse the oncogenic phenotypes induced by Pin1 overexpression, including induction of centrosome amplification, activation of the cyclin D1 promoter, and enhancement of foci formation.

[1] = system: Pin1 and substrate oncogenes and tumor suppressors; test: Protein levels of Pin1 and its substrates in breast cell lines; type: cell-based, human
Text: (I, J) Either ATRA (I) or inducible Pin1 KD (J) shared the same ability to reduce protein levels of Pin1 and its substrate oncogenes including cyclin D1, HER2, ERα, Akt, NFkB/p65, c-Jun and PKM2 as well as to increase protein levels of Pin1 substrate tumor suppressors, Smad and SMRT, in breast cancer MDA-MB-231, SKBR3 and T47D cells, with ATRA having little effects on normal MCF10A cells. TNBC, triple negative breast cancer.
To further support that ATRA targets Pin1 in breast cancer, it was examined whether ATRA would affect protein levels of a selected set of oncogenes and tumor suppressors, whose protein stability is shown to be regulated by Pin1 in breast cancer. […] To further support that these effects of ATRA are due to Pin1 degradation, it was stably introduced tetracycline-inducible Pin1 KD into these cells. Inducible Pin1 KO produced the same effects on the oncogenes and tumor suppressors, as did ATRA (FIG. 6J). Taken together, ATRA selectively ablated activated Pin1 to inhibit many cancer-driving pathways simultaneously.

MDA-MB-231 cells = test: MDA-MB-231 xenograft in nude mice; type: in vivo, female nude mice; conditions: intraperitoneally 3 times a week for 8 weeks
Description: (A, B) ATRA inhibited tumor growth of MDA-MB-231 cells in mice. Female nude mice were flank-inoculated with 2×10^6 MDA-MB-231 cells and, 1 week later, implanted with 5 or 10 mg 21 day slow-releasing ATRA pellets. Tumor sizes were measured weekly and tumor tissues were collected from the mice after 7 weeks (A). Curves of tumor volume were plotted after calculation with formula of L×W^2×0.52 (B) (n=3).
FIG. 7 illustrates study results 700 in which the slow-releasing ATRA inhibits human triple negative breast cancer tumor growth in mice. In the pilot experiments, female nude mice were subcutaneously injected with MDA-MB-231 cells into the flank, followed by administering ATRA or vehicle intraperitoneally 3 times a week for 8 weeks. […] This ATRA's modest anti-tumor activity could be due to its short half-life of less than 1 h in humans. Thus, slow-releasing ATRA pills to maintain its constant drug level in mice was used. Mice were again subcutaneously injected with MDA-MB-231 cells into the flank and implanted 1 week later with slow-releasing ATRA or placebo pills for 8 weeks. […] Tumor samples were then collected at the end and immunoblotted with antibodies against Pin1 and its target cyclin D1.

[2] = system: MDA-MB-231 cells expressing Q33K or E100D Pin1 mutant; test: Xenograft of MDA-MB-231 cells expressing Q33K or E100D Pin1 mutant; parameters: species or system nude mice; conditions: mouse, in vivo
Description: (H-J) ATRA inhibited tumor growth of MDA-MB-231 cells in mice, even after over-expression of monomeric Q33K or E100D Pin1 mutant. Nude mice were injected with 2×10^6 MDA-MB-231 cells and treated with ATRA pellets at indicated dosages. Tumors were harvested 7 weeks later. Quantitative curve of tumor volumes developed by Q33K (I) or E100D (J)-expressing MDA-MB-231 in the nude mice (n=3).
It was examined whether ATRA is suitable for treating tumors driven by cancer-derived monomeric Pin1 mutants given that it induces degradation of monomeric Pin1. It is stably expressed WT, Q33K or E100D Flag-Pin1 in MDA-MB-231 cells, and then treated them with ATRA. […] Collectively, ATRA has potent anti-tumor activity against breast cancer driven by WT Pin1 or its cancer-derived monomeric mutants via ablating Pin1.

NB4 cells = test: Cell growth of NB4 cells; type: cell-based, human; conditions: combination with 1.5 μM ATRA; superior to high dose ATRA
Text: (K) Potentiated effects of ATRA with SIRT1 inhibitors, NAM or Splito, on cell growth of NB4.
Next, in a consideration to test the role of activated Pin1 monomer in APL, the anti-proliferative effect of ATRA in the presence of the SIRT1 inhibitors, NAM or Splito, to deplete the monomeric Pin1 reservoir was examined.

AU565 cells = test: ATRA sensitivity of AU565 cells in combination with SIRT1 inhibitors; type: cell-based, human; conditions: ATRA-resistant AU565 cells
Text: Moreover, SIRT1 KD cells were more sensitive to growth inhibition, and Pin1 degradation induced by ATRA. These findings support the notion that ATRA selectively targets the activated Pin1 monomer.

Pin1 [3] = target: T2, Pin1 (Homo sapiens, UniProt Q13526); test: In vitro PPIase assay; conditions: dose-dependent
[4] = system: PML-RARα and Pin1 in NB4 cells; test: PML-RARα and Pin1 protein levels in NB4 cells; type: cell-based, human
breast cancer cells = test: Effect of pan-RARs inhibitor/activator on ATRA-induced Pin1 degradation and growth inhibition; type: cell-based, human
Text: To examine whether the inhibitory effects of ATRA on breast cancer cell growth were related to RAR activation, Ro-415253 and AC-93253 were used. […] Thus, ATRA-mediated growth inhibition is likely via Pin1 degradation in breast cancer cells, as in APL cells.

[5] = system: APL cells isolated from hCG-PML-RARα transgenic mice
Pin1 S71E mutant = Pin1 S71E mutant (Homo sapiens, UniProt Q13526, S71E); test: Binding to phosphorylation-mimicking Pin1 S71E mutant
Text: as §1
The levels of S71 phosphorylation in different cell lines were tightly correlated with ATRA's sensitivity. […] It has been previously shown that phosphorylation on S71 forms salt bridges with K63 and R69, which are the same two residues that coordinated for the binding to the carboxylic acid group of ATRA (FIG. 6H). Thus S71 phosphorylation by DAPK1 may regulate ATRA's sensitivity of cancer cells.

Pin1 [6] = target: T2, Pin1; conditions: read-out: Kd (affinity for Pin1); cited from earlier work
cells = conditions: cited from earlier work
Pin1 acetylation = Pin1 acetylation in cells (Flag IP, acetyl-lysine immunoblot); type: cell-based
Text: FIG. 1 depicts HTS results for glucose starvation induced Pin1 deacetylation in cells 100. In order to perform glucose starvation induced Pin1 deacetylation in cells, cells were transfected with Flag-Pin1 and subjected to various stresses, followed by Flag IP before with immunoblotting acetyl-lysine (AcK) or Flag antibody. Glu-, glucose starvation; HS, heat shock; UV, UV radiation. […] Overexpression of p300-HA increased Pin1 acetylation in cells. Various histone acetyl transferases were co-transfected with Flag-Pin1 into cells, followed by assaying acetylated Pin1. p300 inhibitors, Garcinol (Gar) and Anacardic acid (AnAc), reversed p300-increased Pin1 acetylation.
To corroborate this notion, 2-deoxyglucose (2-DG), a glucose analog, was used to mimic glucose starvation (Wick et al., 1955). […] Protein acetylation may be catalytically modulated by a particular pair of histone acetyl transferase (HAT) and deacetylase (HDAC) (Yang and Seto, 2007). To identify the HAT and HDAC that modulates Pin1 acetylation, Flag-tagged Pin1 was expressed with several HATs including p300, CBP or GCN5 in cells, followed by coimmunoprecipitation (Co-IP) with anti-Flag antibody and immunoblotting with anti-acetyl lysine antibody.

Molecule: C=C(c1ccc(C(=O)O)cc1)c1cc2c(cc1C)C(C)(C)CCC2(C)C [Bexarotene]
- Pin1 binding among retinoids tested (Pin1 PPIase domain): only marginal Pin1 interaction

Molecule: O=C1CCc2c(ccc3ccccc23)O1 [Splito]
- effect on anticancer effects of low dose ATRA (NB4 cells): greatly potentiated
- effect on ATRA sensitivity (AU565 cells): increase ATRA sensitivity

Molecule: CCOC(=O)CN1C(=O)c2ccc3c4c(ccc(c24)C1=O)C(=O)N(CC(=O)OCC)C3=O [PiB]
- PML-RARα degradation [4]: induced PML-RARα degradation in a dose-dependent manner
- Pin1 degradation [4]: inhibited Pin1 without degrading it

Molecule: CCCCCCCOc1cc2c(cc1/C(C)=C/c1ccc(C(=O)O)cc1)C(C)(C)CCS2(=O)=O [Ro-415253]
- effect on Pin1 degradation or cell growth inhibition induced by ATRA (breast cancer cells): neither the pan-RARs inhibitor nor the pan-RARs activator had any obvious effects

Molecule: NC(=O)c1cccnc1 [NAM]
- effect on anticancer effects of low dose ATRA (NB4 cells): greatly potentiated
- increase of ATRA sensitivity (AU565 cells): 2 orders of magnitude

Molecule: O=CC[C@@H](O)[C@H](O)[C@H](O)CO [2-DG, 2-deoxyglucose]
- Pin1 acetylation (Pin1 acetylation; mimic of glucose starvation): reduction in Pin1 acetylation in a time- or dose-dependent manner

Molecule: CCCCCCCCCCCCCCCc1cccc(O)c1C(=O)O [Anacardic acid]
- effect on p300-increased Pin1 acetylation (Pin1 acetylation; p300 over-expressed): reversed

Molecule: CC1=C(/C=C/C(C)=C/C=C/C(C)=C/C(=O)Nc2ccc(O)cc2)C(C)(C)CCC1 [Fenretinide]
- Pin1 binding among retinoids tested (Pin1 PPIase domain): only marginal Pin1 interaction

Continued, in another order:

- Pin1 binding among retinoids tested (Pin1 PPIase domain): most potent
- Pin1 binding potency, ATRA versus 13cRA (Pin1 PPIase domain; after 0.5 h Pin1 incubation): more potent than 13cRA
- Pin1 binding potency, ATRA versus 13cRA (Pin1 PPIase domain; after 24 h Pin1 incubation): the same potency
Molecule: CC1=C(/C=C/C(C)=C/C=C/C(C)=C/C(=O)O)C(C)(C)CCC1 [ATRA, all-trans-retinoic acid]
- interaction with Pin1 in FP assay (Pin1 PPIase domain): interacted with Pin1 in a dose-dependent manner
- inhibition of Pin1 activation of the cyclin D1 promoter (cyclin D1 promoter): fully inhibited
- protein levels of Pin1 and oncogenic substrates (cyclin D1, HER2, ERα, Akt, NFkB/p65, c-Jun, PKM2) ([1]; T47D, SKBR3 or MDA-MB-231): dose-dependent protein reduction
- protein levels of tumor suppressor substrates Smad2/3 or SMRT ([1]; T47D, SKBR3 or MDA-MB-231): protein induction
- changes in Pin1, oncogenes or tumor suppressors ([1]; normal MCF10A cells): no appreciable changes
- tumor size (MDA-MB-231 cells): slightly smaller tumors than control mice
- Pin1 mutants and cyclin D1 in tumors [2]: dose-dependently reduced both Q33K and E100D Pin1 mutants and cyclin D1 in tumors
- inhibition of Q33K or E100D Pin1 mutant-promoted xenograft tumor growth [2]: dose-dependently and effectively inhibited

- Pin1 binding among retinoids tested (Pin1 PPIase domain): completely inactive
Molecule: CC1=C(/C=C/C(C)=C/C=C/C(C)=C/CO)C(C)(C)CCC1 [retinol]

- Pin1 binding among retinoids tested (Pin1 PPIase domain): completely inactive
Molecule: CC(=O)OC/C=C(C)/C=C/C=C(C)/C=C/C1=C(C)CCCC1(C)C [retinyl acetate]

- rank as Pin1 inhibitor hit by Z score in FP-HTS (Pin1 PPIase domain; 8200 compound chemical libraries): No. 1 hit
- inhibition of Pin1 PPIase activity (Pin1 [3]): completely inhibited
Molecule: CC1=C(/C=C/C(C)=C/C=C/C(C)=C\C(=O)O)C(C)(C)CCC1 [13cRA, 13-cis-retinoic acid]
- interaction with Pin1 in FP assay (Pin1 PPIase domain): interacted with Pin1 in a dose-dependent manner

- Pin1 binding among retinoids tested (Pin1 PPIase domain): completely inactive
Molecule: CC1=C(/C=C/C(C)=C/C=C/C(C)=C/C=O)C(C)(C)CCC1 [retinal]

- condition of treated mice ([5]; mouse, in vivo): rather sick
Molecule: O=C(O[C@@H]1Cc2c(O)cc(O)cc2O[C@@H]1c1cc(O)c(O)c(O)c1)c1cc(O)c(O)c(O)c1 [EGCG]
- PML-RARα degradation [4]: induced PML-RARα degradation in a dose-dependent manner
- Pin1 degradation [4]: inhibited Pin1 without degrading it
- PML-RARα in the bone marrow ([5]; after 20 days): dramatically reduced
- potency in reducing PML-RARα and spleen size compared with ATRA ([5]; mouse, in vivo): less potent
- spleen weights ([5]; versus enlarged spleens in placebo group): remained nearly at basal levels

- binding to Pin1 S71E mutant (Pin1 S71E mutant): unable to bind
Molecule: Bth-d-phos.Thr-Pip-Nal [pTide]
- pKd (Pin1 [6]): 8.92
- ability to enter cells (cells): cannot enter cells

- interaction with Pin1 in FP assay (Pin1 PPIase domain): negative control
Molecule: O=C(O)c1ccccc1O [salicylic acid]
